Assay results published in patent US9212151B2, “Heterocyclic compounds useful for kinase inhibition” (Amitech Therapeutic Solutions, Inc., priority 2010, dated 2015).

Test: MTT cell viability assay, compounds at 5, 1 and 0.2 μM, 48 hours
Assay type: cell-based
Settings: human, A549 tumor cells, 0.2 μM
In short: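 A549 cells were seeded at 2500/well in DMEM + 10% FBS, grown overnight, then exposed to compound for 48 h. Viability was read by MTT (5 mg/ml, 4 h), with formazan dissolved in DMSO and absorbance measured at 560/570 nm to give survival rate.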

Compound	viability at 48 h, 0.2 µM [%]
Cc1ccc2nccc(Oc3ccc(-c4nnc(Nc5cccc(C(F)(F)F)c5)[nH]4)cc3)c2c1 [Compound 162]	> 70
FC(F)(F)Oc1ccc2c(Oc3ccc(-c4nnc(Nc5cccc(C(F)(F)F)c5)[nH]4)cc3)ccnc2c1 [Compound 163]	> 70
FC(F)(F)c1cccc(Nc2nnc(-c3cccc(Oc4cncc5ccccc45)c3)[nH]2)c1 [Compound 164]	> 70
FC(F)(F)c1cccc(Nc2nnc(-c3cccc(Oc4ccnc5cc(C(F)(F)F)ccc45)c3)[nH]2)c1 [Compound 165]	> 70
FC(F)(F)c1cccc(Nc2nnc(-c3cccc(Oc4nccc5ccccc45)c3)[nH]2)c1 [Compound 166]	> 70
FC(F)(F)c1cccc(Nc2nnc(-c3cccc(Oc4ccnc5cc(Cl)ccc45)c3)[nH]2)c1 [Compound 167]	> 70
Cc1cc(Oc2cccc(-c3nnc(Nc4cccc(C(F)(F)F)c4)[nH]3)c2)c2ccccc2n1 [Compound 168]	> 70
FC(F)(F)c1cccc(Nc2nnc(-c3cccc(Oc4cc(C(F)(F)F)nc5ccccc45)c3)[nH]2)c1 [Compound 169]	> 70
COc1cc2ncnc(Oc3cccc(-c4nnc(Nc5cccc(C(F)(F)F)c5)[nH]4)c3)c2cc1OC [Compound 170]	> 70
O=c1cc(COc2cccc(-c3nnc(Nc4cccc(C(F)(F)F)c4)[nH]3)c2)c2ccccc2[nH]1 [Compound 171]	> 70
Cc1ccc2nccc(Oc3cccc(-c4nnc(Nc5cccc(C(F)(F)F)c5)[nH]4)c3)c2c1 [Compound 172]	> 70
FC(F)(F)Oc1ccc2c(Oc3cccc(-c4nnc(Nc5cccc(C(F)(F)F)c5)[nH]4)c3)ccnc2c1 [Compound 173]	> 70
FC(F)(F)c1cccc(-c2nnc(Nc3ccc(Oc4cccnc4)cc3)[nH]2)c1 [Compound 174]	> 70
COc1ccc2c(Oc3ccc(Nc4nnc(-c5cccc(C(F)(F)F)c5)[nH]4)cc3)ccnc2c1 [Compound 175]	> 70
CSc1nc(N)cc(Oc2ccc(Nc3nnc(-c4cccc(C(F)(F)F)c4)[nH]3)cc2)n1 [Compound 176]	> 70
Cc1ccc(-c2nnc(Nc3cccc(C(F)(F)F)c3)[nH]2)cc1Oc1cccnc1 [Compound 177]	> 70
Cc1ccc(-c2nnc(Nc3cccc(C(F)(F)F)c3)[nH]2)cc1Oc1ccncc1 [Compound 178]	50 to 70
CSc1nc(N)cc(Oc2cc(-c3nnc(Nc4cccc(C(F)(F)F)c4)[nH]3)ccc2C)n1 [Compound 179]	> 70
CSc1nc(N)cc(Oc2ccc(Nc3nnc(-c4cccc(Cl)c4)[nH]3)cc2)n1 [Compound 180]	> 70
Oc1ccc(Nc2nnc(-c3cccc(C(F)(F)F)c3)[nH]2)cc1 [Compound 181]	> 70
Oc1ccc(Nc2nnc(-c3cccc(Cl)c3)[nH]2)cc1 [Compound 182]	> 70
COc1ccc(Nc2nnc(-c3cccc(C(F)(F)F)c3)[nH]2)cc1 [Compound 183]	> 70
COc1ccc2nccc(Oc3ccc(-c4nnc(Nc5cccc(C(F)(F)F)c5)[nH]4)cc3)c2c1 [Compound 185]	> 70
Fc1ccc2c(Oc3ccc(-c4nnc(Nc5cccc(C(F)(F)F)c5)[nH]4)cc3)ccnc2c1 [Compound 186]	> 70

Same assay, conditions: human, A549 tumor cells, 1 μM

Compound	viability at 48 h, 1 µM [%]
Cc1ccc2nccc(Oc3ccc(-c4nnc(Nc5cccc(C(F)(F)F)c5)[nH]4)cc3)c2c1 [Compound 162]	> 70
FC(F)(F)Oc1ccc2c(Oc3ccc(-c4nnc(Nc5cccc(C(F)(F)F)c5)[nH]4)cc3)ccnc2c1 [Compound 163]	> 70
FC(F)(F)c1cccc(Nc2nnc(-c3cccc(Oc4cncc5ccccc45)c3)[nH]2)c1 [Compound 164]	> 70
FC(F)(F)c1cccc(Nc2nnc(-c3cccc(Oc4ccnc5cc(C(F)(F)F)ccc45)c3)[nH]2)c1 [Compound 165]	> 70
FC(F)(F)c1cccc(Nc2nnc(-c3cccc(Oc4nccc5ccccc45)c3)[nH]2)c1 [Compound 166]	> 70
FC(F)(F)c1cccc(Nc2nnc(-c3cccc(Oc4ccnc5cc(Cl)ccc45)c3)[nH]2)c1 [Compound 167]	> 70
Cc1cc(Oc2cccc(-c3nnc(Nc4cccc(C(F)(F)F)c4)[nH]3)c2)c2ccccc2n1 [Compound 168]	> 70
FC(F)(F)c1cccc(Nc2nnc(-c3cccc(Oc4cc(C(F)(F)F)nc5ccccc45)c3)[nH]2)c1 [Compound 169]	> 70
COc1cc2ncnc(Oc3cccc(-c4nnc(Nc5cccc(C(F)(F)F)c5)[nH]4)c3)c2cc1OC [Compound 170]	> 70
O=c1cc(COc2cccc(-c3nnc(Nc4cccc(C(F)(F)F)c4)[nH]3)c2)c2ccccc2[nH]1 [Compound 171]	> 70
Cc1ccc2nccc(Oc3cccc(-c4nnc(Nc5cccc(C(F)(F)F)c5)[nH]4)c3)c2c1 [Compound 172]	> 70
FC(F)(F)Oc1ccc2c(Oc3cccc(-c4nnc(Nc5cccc(C(F)(F)F)c5)[nH]4)c3)ccnc2c1 [Compound 173]	> 70
FC(F)(F)c1cccc(-c2nnc(Nc3ccc(Oc4cccnc4)cc3)[nH]2)c1 [Compound 174]	> 70
COc1ccc2c(Oc3ccc(Nc4nnc(-c5cccc(C(F)(F)F)c5)[nH]4)cc3)ccnc2c1 [Compound 175]	> 70
CSc1nc(N)cc(Oc2ccc(Nc3nnc(-c4cccc(C(F)(F)F)c4)[nH]3)cc2)n1 [Compound 176]	> 70
Cc1ccc(-c2nnc(Nc3cccc(C(F)(F)F)c3)[nH]2)cc1Oc1cccnc1 [Compound 177]	> 70
Cc1ccc(-c2nnc(Nc3cccc(C(F)(F)F)c3)[nH]2)cc1Oc1ccncc1 [Compound 178]	< 50
CSc1nc(N)cc(Oc2cc(-c3nnc(Nc4cccc(C(F)(F)F)c4)[nH]3)ccc2C)n1 [Compound 179]	> 70
CSc1nc(N)cc(Oc2ccc(Nc3nnc(-c4cccc(Cl)c4)[nH]3)cc2)n1 [Compound 180]	> 70
Oc1ccc(Nc2nnc(-c3cccc(C(F)(F)F)c3)[nH]2)cc1 [Compound 181]	> 70
Oc1ccc(Nc2nnc(-c3cccc(Cl)c3)[nH]2)cc1 [Compound 182]	> 70
COc1ccc(Nc2nnc(-c3cccc(C(F)(F)F)c3)[nH]2)cc1 [Compound 183]	> 70
COc1ccc2nccc(Oc3ccc(-c4nnc(Nc5cccc(C(F)(F)F)c5)[nH]4)cc3)c2c1 [Compound 185]	> 70
Fc1ccc2c(Oc3ccc(-c4nnc(Nc5cccc(C(F)(F)F)c5)[nH]4)cc3)ccnc2c1 [Compound 186]	> 70

Same assay, conditions: human, A549 tumor cells, 5 μM

Compound	viability at 48 h, 5 µM [%]
Cc1ccc2nccc(Oc3ccc(-c4nnc(Nc5cccc(C(F)(F)F)c5)[nH]4)cc3)c2c1 [Compound 162]	> 70
FC(F)(F)Oc1ccc2c(Oc3ccc(-c4nnc(Nc5cccc(C(F)(F)F)c5)[nH]4)cc3)ccnc2c1 [Compound 163]	> 70
FC(F)(F)c1cccc(Nc2nnc(-c3cccc(Oc4cncc5ccccc45)c3)[nH]2)c1 [Compound 164]	50 to 70
FC(F)(F)c1cccc(Nc2nnc(-c3cccc(Oc4ccnc5cc(C(F)(F)F)ccc45)c3)[nH]2)c1 [Compound 165]	> 70
FC(F)(F)c1cccc(Nc2nnc(-c3cccc(Oc4nccc5ccccc45)c3)[nH]2)c1 [Compound 166]	> 70
FC(F)(F)c1cccc(Nc2nnc(-c3cccc(Oc4ccnc5cc(Cl)ccc45)c3)[nH]2)c1 [Compound 167]	> 70
Cc1cc(Oc2cccc(-c3nnc(Nc4cccc(C(F)(F)F)c4)[nH]3)c2)c2ccccc2n1 [Compound 168]	50 to 70
FC(F)(F)c1cccc(Nc2nnc(-c3cccc(Oc4cc(C(F)(F)F)nc5ccccc45)c3)[nH]2)c1 [Compound 169]	> 70
COc1cc2ncnc(Oc3cccc(-c4nnc(Nc5cccc(C(F)(F)F)c5)[nH]4)c3)c2cc1OC [Compound 170]	> 70
O=c1cc(COc2cccc(-c3nnc(Nc4cccc(C(F)(F)F)c4)[nH]3)c2)c2ccccc2[nH]1 [Compound 171]	> 70
Cc1ccc2nccc(Oc3cccc(-c4nnc(Nc5cccc(C(F)(F)F)c5)[nH]4)c3)c2c1 [Compound 172]	50 to 70
FC(F)(F)Oc1ccc2c(Oc3cccc(-c4nnc(Nc5cccc(C(F)(F)F)c5)[nH]4)c3)ccnc2c1 [Compound 173]	> 70
FC(F)(F)c1cccc(-c2nnc(Nc3ccc(Oc4cccnc4)cc3)[nH]2)c1 [Compound 174]	> 70
COc1ccc2c(Oc3ccc(Nc4nnc(-c5cccc(C(F)(F)F)c5)[nH]4)cc3)ccnc2c1 [Compound 175]	> 70
CSc1nc(N)cc(Oc2ccc(Nc3nnc(-c4cccc(C(F)(F)F)c4)[nH]3)cc2)n1 [Compound 176]	> 70
Cc1ccc(-c2nnc(Nc3cccc(C(F)(F)F)c3)[nH]2)cc1Oc1cccnc1 [Compound 177]	> 70
Cc1ccc(-c2nnc(Nc3cccc(C(F)(F)F)c3)[nH]2)cc1Oc1ccncc1 [Compound 178]	< 50
CSc1nc(N)cc(Oc2cc(-c3nnc(Nc4cccc(C(F)(F)F)c4)[nH]3)ccc2C)n1 [Compound 179]	50 to 70
CSc1nc(N)cc(Oc2ccc(Nc3nnc(-c4cccc(Cl)c4)[nH]3)cc2)n1 [Compound 180]	50 to 70
Oc1ccc(Nc2nnc(-c3cccc(C(F)(F)F)c3)[nH]2)cc1 [Compound 181]	> 70
Oc1ccc(Nc2nnc(-c3cccc(Cl)c3)[nH]2)cc1 [Compound 182]	> 70
COc1ccc(Nc2nnc(-c3cccc(C(F)(F)F)c3)[nH]2)cc1 [Compound 183]	> 70
COc1ccc2nccc(Oc3ccc(-c4nnc(Nc5cccc(C(F)(F)F)c5)[nH]4)cc3)c2c1 [Compound 185]	> 70
Fc1ccc2c(Oc3ccc(-c4nnc(Nc5cccc(C(F)(F)F)c5)[nH]4)cc3)ccnc2c1 [Compound 186]	> 70
